Laboratory results from article PMC3179267 (Biochemistry, 2011).
Where a SMILES comes first, the peptide text is derived from it. Bridges are numbered along the chain shown (N, C = ends).

Columns and labels:
trypsin [1] = test: Protease susceptibility assay; assay type: in vitro ADME; conditions: 80 μM peptide, pH 8.2, room temperature, up to 60 min, analytical HPLC
trypsin [2] = conditions: cited from earlier work

Row | SMILES | susceptibility to trypsin (trypsin [1]) | susceptibility to trypsin, literature (trypsin [2])
1 | CC[C@H](C)[C@@H]1NC(=O)[C@H](CCC(=O)O)NC(=O)[C@@H]2CSSC[C@@H]3NC(=O)[C@H](Cc4ccc(O)cc4)NC(=O)[C@@H](NC(=O)[C@@H](NC(=O)[C@H](C)N)[C@@H](C)O)CSSC[C@@H](C(=O)N[C@@H](CCCNC(=N)N)C(=O)O)NC(=O)[C@H](CSSC[C@H](NC(=O)[C@H](CCCNC(=N)N)NC(=O)CNC(=O)[C@H]([C@@H](C)O)NC(=O)[C@H](CCCNC(=N)N)NC3=O)C(=O)N[C@@H](C)C(=O)N[C@@H]([C@@H](C)O)C(=O)N[C@@H](CCCNC(=N)N)C(=O)N[C@@H](CCC(=O)O)C(=O)N[C@@H](CO)C(=O)N[C@@H](CC(C)C)C(=O)N[C@@H](CO)C(=O)NCC(=O)N[C@@H](C(C)C)C(=O)N2)NC(=O)[C@H](CC(C)C)NC(=O)[C@H](CCCNC(=N)N)NC(=O)[C@H](Cc2ccc(O)cc2)NC(=O)[C@H](CC(C)C)NC(=O)[C@H](CCCNC(=N)N)NC(=O)CNC(=O)[C@H](CO)NC1=O [HD5ox] (H-ATCYCRTGRCATRESLSGVCEISGRLYRLCCR-OH; disulfide 3-31, 5-20, 10-30) | not accepted as a substrate | very poor substrate
2 | CC[C@H](C)[C@H](NC(=O)[C@H](CCC(=O)O)NC(=O)[C@H](CS)NC(=O)[C@@H](NC(=O)CNC(=O)[C@H](CO)NC(=O)[C@H](CC(C)C)NC(=O)[C@H](CO)NC(=O)[C@H](CCC(=O)O)NC(=O)[C@H](CCCNC(=N)N)NC(=O)[C@@H](NC(=O)[C@H](C)NC(=O)[C@H](CS)NC(=O)[C@H](CCCNC(=N)N)NC(=O)CNC(=O)[C@@H](NC(=O)[C@H](CCCNC(=N)N)NC(=O)[C@H](CS)NC(=O)[C@H](Cc1ccc(O)cc1)NC(=O)[C@H](CS)NC(=O)[C@@H](NC(=O)[C@H](C)N)[C@@H](C)O)[C@@H](C)O)[C@@H](C)O)C(C)C)C(=O)N[C@@H](CO)C(=O)NCC(=O)N[C@@H](CCCNC(=N)N)C(=O)N[C@@H](CC(C)C)C(=O)N[C@@H](Cc1ccc(O)cc1)C(=O)N[C@@H](CCCNC(=N)N)C(=O)N[C@@H](CC(C)C)C(=O)N[C@@H](CS)C(=O)N[C@@H](CS)C(=O)N[C@@H](CCCNC(=N)N)C(=O)O [HD5red] (H-ATCYCRTGRCATRESLSGVCEISGRLYRLCCR-OH) | rapid proteolytic cleavage | 
